How the values were obtained:
[1] = molecular target: T1, M3 receptor in bladder (Rattus norvegicus, UniProt P08483); test: Rat bladder in vitro binding assay, receptor block by selective ligand; settings: bladder membranes
T1 construct: Membranes from rat bladder were prepared; from tissue; host or cells: rat bladder membranes
Experimental: (§1) Bladder was comprised of both M2 and M3 muscannic receptors. The ratio was typically 4:1 M2:M3. […] The following example illustrates the procedure for M3 bladder binding.
Membranes from rat bladder were prepared in a similar fashion to that used to isolate heart membrane above. […] To 50 μl of compound dilution in a 96-well assay plate was added an appropriate amount of rat heart membrane (usually 25 μl of membrane prep in 75 μl of 20 mM HEPES, 100 mM NaCl/10 mM MgCl2 at pH 7.5). The amount of membrane added depended in general on the results of signal optimization, and ranged from 12.5-25. Last, 50 μl of 2.12 nM 3H-N-methylscopolamine radioligand in compound dilution buffer was added. The total volume in each well was 200 μl. […] The filter plate was pre-blocked using 0.3% PEI for at least 15 mins., and then washed twice with 200 μl PBS. The assay plate was incubated for 1 hour at room temperature with gentle shaking. The contents of the assay plate was then transferred to the filter plate, and washed three times using 200 μl PBS. About 40 μl of scint was added to each well, the plate was allowed to sit at room temperature for 18 h, and then counted using a Packard Topcount NXT.

[2] = molecular target: T2, M2 receptor in bladder (Rattus norvegicus, UniProt P10980); test: as above; settings: blocking ligand 2 μM; bladder membranes
T2 construct: Membranes from rat bladder were prepared; from tissue; host or cells: rat bladder membranes
T2 sequence (P10980 1-466): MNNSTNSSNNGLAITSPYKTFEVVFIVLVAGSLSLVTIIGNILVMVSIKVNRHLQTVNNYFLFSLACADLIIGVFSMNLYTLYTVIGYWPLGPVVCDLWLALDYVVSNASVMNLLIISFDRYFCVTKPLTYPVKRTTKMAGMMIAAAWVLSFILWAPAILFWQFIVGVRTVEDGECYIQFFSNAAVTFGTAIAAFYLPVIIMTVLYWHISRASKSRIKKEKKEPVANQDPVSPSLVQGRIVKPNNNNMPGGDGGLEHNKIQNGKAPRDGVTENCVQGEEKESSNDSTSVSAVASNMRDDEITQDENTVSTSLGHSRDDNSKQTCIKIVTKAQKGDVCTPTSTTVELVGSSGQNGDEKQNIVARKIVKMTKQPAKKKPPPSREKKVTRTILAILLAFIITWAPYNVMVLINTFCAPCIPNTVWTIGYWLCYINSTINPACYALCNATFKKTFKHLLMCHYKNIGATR
Experimental: as §1
Membranes from rat bladder were prepared in a similar fashion to that used to isolate heart membrane above. […] To 50 μl of compound dilution in a 96-well assay plate was added an appropriate amount of rat heart membrane (usually 25 μl of membrane prep in 75 μl of 20 mM HEPES, 100 mM NaCl/10 mM MgCl2 at pH 7.5). The amount of membrane added depended in general on the results of signal optimization, and ranged from 12.5-25. Last, 50 μl of 2.12 nM 3H-N-methylscopolamine radioligand in compound dilution buffer was added. The total volume in each well was 200 μl. The final concentration of methoctramine was 2 μM. The filter plate was pre-blocked using 0.3% PEI for at least 15 mins., and then washed twice with 200 μl PBS. The assay plate was incubated for 1 hour at room temperature with gentle shaking. The contents of the assay plate was then transferred to the filter plate, and washed three times using 200 μl PBS. About 40 μl of scint was added to each well, the plate was allowed to sit at room temperature for 18 h, and then counted using a Packard Topcount NXT.

[3] = test system: oxotremorine response (intraluminal pressure of the bladder); test: In vivo bladder assay; design: species or system rat; settings: 0.005-0.01 mg/kg, IV; after oxotremorine 0.3 mg/kg SC; anesthetized male Sprague-Dawley rats
Experimental: Male Sprague-Dawley rats weighing 250-300 g were anesthetized with urethane (1.3 g/kg, i.p.), inactin (25 mg/kg, i.p.), and xylazine (4 mg, i.p.). The jugular (or femoral) vein was isolated and ligated and a small incision was made in the vein distal to the ligation. […]
For data analysis, the oxotremorine response (zero inhibition) was determined by measuring the mean pressure 1 minute prior to the antagonist injection. Then, to assess antagonist inhibition, mean pressure was measured beginning at 1 minute and ending 2 minutes after antagonist administration. […] The percent inhibition by the antagonist can be determined by the ratio of the decrease from the zero to 100% values. • The formula is: oxotremorine mean−treatment mean*100 oxotremorine mean−atropine mean.

T1 sequence (P08483 whole entry): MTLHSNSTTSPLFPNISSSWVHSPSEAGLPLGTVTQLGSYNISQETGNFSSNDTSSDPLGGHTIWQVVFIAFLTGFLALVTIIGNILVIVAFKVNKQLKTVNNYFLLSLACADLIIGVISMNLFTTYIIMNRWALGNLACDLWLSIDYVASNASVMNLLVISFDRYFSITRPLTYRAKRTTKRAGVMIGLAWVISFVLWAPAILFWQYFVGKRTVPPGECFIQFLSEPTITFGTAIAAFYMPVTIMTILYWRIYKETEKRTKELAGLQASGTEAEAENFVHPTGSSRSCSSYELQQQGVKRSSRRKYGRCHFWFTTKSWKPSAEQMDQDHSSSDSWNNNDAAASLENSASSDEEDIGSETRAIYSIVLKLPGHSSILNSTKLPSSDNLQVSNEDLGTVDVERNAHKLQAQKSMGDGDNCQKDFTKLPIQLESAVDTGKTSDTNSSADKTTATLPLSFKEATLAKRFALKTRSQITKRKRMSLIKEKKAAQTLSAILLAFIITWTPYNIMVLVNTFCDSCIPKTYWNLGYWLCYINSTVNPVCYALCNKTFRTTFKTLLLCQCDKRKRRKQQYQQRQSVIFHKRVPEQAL

block of M3 receptor ([1]; 2 μM Darifenacin)	Compound	block of the M2 receptor in bladder [2] [%]	decrease in intraluminal pressure [3]	block of the M3 receptor in bladder ([1]; final concentration of methoctramine 2 μM)
minimal	NC(=O)C(c1ccccc1)(c1ccccc1)[C@@H]1CCN(CCc2ccc3c(c2)CCO3)C1 [Darifenacin]	> 99		
	CN1[C@@H]2CC[C@H]1C[C@@H](OC(=O)C(CO)c1ccccc1)C2 (some centres unmarked) [atropine]		30-70%	
	COc1ccccc1CNCCCCCCNCCCCCCCCNCCCCCCNCc1ccccc1OC [methoctramine, Methoctramine]	> 99		less than 40%
